Test results taken from ChEMBL document CHEMBL3714726, “Substituted quinoxaline carboxylic acids for the inhibition of PASK” (2014).

Tests used:
[1] = biological target: PAS domain-containing serine/threonine-protein kinase (Homo sapiens, UniProt Q96RG2); test: Inhibition of human recombinant PASK using Ulight-peptide substrate incubated for 2 hrs by TR-FRET assay
[2] = Half life in Sprague-Dawley rat at 1 mg/kg, iv after 0.083 to 24 hrs by LC-MS/MS method; assay type: ADME, organism-based; settings: in vivo

PAS domain-containing serine/threonine-protein kinase, sequence (Q96RG2 whole entry, the tested form may be a part): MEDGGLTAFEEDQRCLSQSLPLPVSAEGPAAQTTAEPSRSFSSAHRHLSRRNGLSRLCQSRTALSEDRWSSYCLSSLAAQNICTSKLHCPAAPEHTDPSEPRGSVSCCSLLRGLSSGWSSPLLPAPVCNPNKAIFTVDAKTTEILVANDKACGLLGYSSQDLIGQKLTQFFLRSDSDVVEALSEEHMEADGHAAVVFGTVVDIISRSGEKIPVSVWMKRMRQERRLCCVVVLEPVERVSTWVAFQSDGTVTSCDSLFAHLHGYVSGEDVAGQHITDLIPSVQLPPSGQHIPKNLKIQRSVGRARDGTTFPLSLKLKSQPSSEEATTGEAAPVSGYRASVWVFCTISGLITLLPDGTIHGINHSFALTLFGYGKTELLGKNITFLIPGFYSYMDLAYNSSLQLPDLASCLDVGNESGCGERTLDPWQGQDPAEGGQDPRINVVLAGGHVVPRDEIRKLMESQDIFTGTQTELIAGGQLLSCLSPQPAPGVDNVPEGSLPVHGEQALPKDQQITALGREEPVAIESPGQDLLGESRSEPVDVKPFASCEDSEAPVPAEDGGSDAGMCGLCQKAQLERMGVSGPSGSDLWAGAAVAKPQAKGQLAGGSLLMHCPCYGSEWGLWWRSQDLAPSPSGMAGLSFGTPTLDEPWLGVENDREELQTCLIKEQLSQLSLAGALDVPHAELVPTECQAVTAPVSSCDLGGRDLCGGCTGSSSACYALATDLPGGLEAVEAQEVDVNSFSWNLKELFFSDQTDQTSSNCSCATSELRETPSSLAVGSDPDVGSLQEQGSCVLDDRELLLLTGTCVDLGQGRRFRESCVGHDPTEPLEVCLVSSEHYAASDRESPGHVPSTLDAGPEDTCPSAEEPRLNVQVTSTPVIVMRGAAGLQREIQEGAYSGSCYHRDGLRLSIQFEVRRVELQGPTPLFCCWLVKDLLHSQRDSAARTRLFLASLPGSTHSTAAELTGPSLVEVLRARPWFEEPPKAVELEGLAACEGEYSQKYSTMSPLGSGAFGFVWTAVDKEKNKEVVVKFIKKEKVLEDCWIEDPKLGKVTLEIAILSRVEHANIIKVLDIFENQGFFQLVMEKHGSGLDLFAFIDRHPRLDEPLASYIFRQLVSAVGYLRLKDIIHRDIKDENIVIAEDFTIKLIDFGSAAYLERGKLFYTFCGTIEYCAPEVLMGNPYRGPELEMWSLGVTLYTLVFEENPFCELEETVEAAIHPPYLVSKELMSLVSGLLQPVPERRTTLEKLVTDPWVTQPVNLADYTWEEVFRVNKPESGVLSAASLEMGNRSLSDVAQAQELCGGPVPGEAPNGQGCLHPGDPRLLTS

CC(C)N(C)c1nc2cc(C(=O)O)ccc2nc1-c1nc2ccccc2o1
IC50 [1]: ≤ 10 µM

COc1ccc(-c2nc3ccc(C(=O)O)cc3nc2N(C)C(C)C)cn1
IC50 [1]: ≤ 10 µM

C[C@H]1COCCN1c1nc2cc(C(=O)O)ccc2nc1-c1ccc(F)cc1
half-life [2]: 7.72 h
